Patent publication US10577333B2, “Tetrazole derivatives as cytochrome P450 inhibitors” (C26 Bioscience AB, priority 2016, dated 2020)

How the values were obtained:
[1] = system: atRA responsive genes CYP26B1 and RARβ; experiment: QRT-PCR of atRA responsive genes CYP26B1 and RARβ mRNA in human aortic smooth muscle cells; type: cell-based; conditions: AOSMCs
Protocol: FIG. 1 illustrates the induction of CYP26B1 and RARβ mRNA at different concentrations of test compound: A) CYP26 and B) RARβ in human smooth muscle cells treated with 0.001-10 μM of the test compound. For all experiments n=3; *P≤0.05, **P<0.01 and ***P<0.001.
FIG. 2 are diagrams of CYP26B1 and RARβ mRNA expression in human smooth muscle cells upon treatment with atRA and/or test compound: A) CYP26B1 and B) RARβ mRNA expression in human smooth muscle cells treated with either 1 μm of atRA, test compound or combination of both for 48 h. The experiment was performed in three independent runs; *P≤0.05, **P<0.01 and ***P<0.001.
Human aortic smooth muscle cells (AOSMCs) were treated with different concentrations of a compound of Formula II (0.001-10 μM; FIGS. 1A and B). AOSMCs were incubated with different concentration (0.001-10 μM) of compound according to Formula II, or DMSO as control, at 37 C for 24 h. Total RNA were isolated by using E.Z.N.A total RNA kit (VWR Stockholm Sweden) and cDNA synthesis was performed through high capacity reverse transcription kits (applied Biosystems, Foster City, Calif., USA) according to manufacturers instructions.
Next, human AOSMCs were treated with either 1 μM of atRA or a compound of Formula II alone, or a combination of both for 48 h. The purification and analysis procedures were as described above. […] The results strongly indicate that the compound of Formula II increases retinoid signalling.

purified CYP26B1 = molecular target: T1, purified CYP26B1 (Homo sapiens, UniProt Q9NR63); experiment: Enzymatic assay on purified CYP26B1 with oxidoreductase and NADPH, [3H] atRA, HPLC; type: biochemical; conditions: 5 μM, 5 nM CYP26B1, 50 nM [3H] atRA, 1 mM NADPH, 10 sec to 10 min
T1 construct: made in house
T1 sequence (Q9NR63 1-512): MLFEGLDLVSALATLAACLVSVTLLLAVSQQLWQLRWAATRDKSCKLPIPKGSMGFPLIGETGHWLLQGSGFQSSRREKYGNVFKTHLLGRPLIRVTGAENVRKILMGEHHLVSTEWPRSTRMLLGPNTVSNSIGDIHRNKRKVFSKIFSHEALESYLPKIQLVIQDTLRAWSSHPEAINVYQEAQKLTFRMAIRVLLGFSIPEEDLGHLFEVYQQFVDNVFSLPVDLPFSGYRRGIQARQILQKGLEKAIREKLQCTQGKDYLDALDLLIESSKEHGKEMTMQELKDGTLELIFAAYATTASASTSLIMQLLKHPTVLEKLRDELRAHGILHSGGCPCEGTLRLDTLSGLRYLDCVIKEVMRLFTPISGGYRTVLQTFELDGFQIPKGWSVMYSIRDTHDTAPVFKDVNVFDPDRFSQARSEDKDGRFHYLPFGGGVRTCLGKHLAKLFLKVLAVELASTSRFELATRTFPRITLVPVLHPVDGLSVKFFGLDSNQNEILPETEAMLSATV
Protocol: FIG. 4 is a graph showing results from an enzymatic assay carried out on purified CYP26B1, incubated with 5 or 25 μM of the test compound in the presence of oxidoreductase and NADPH, at different time points. The control experiment was performed without initiation with NADPH. For all experiments n=3.
To investigate the efficiency of the compound of Formula II in blocking CYP26B1, CYP26B1 was purified and subsequently incubated with 5 and 25 μM of compound of Formula II for different time points (10 s to 10 min). This experiment thus excludes any other possible metabolic route that potentially could have been present in the cellular experiments. Purified CYP26B1 was stored in buffer containing 50 mM K2HPO4, 0.5 mM EDTA and 20% of glycerol, pH 7.4 at −80° C. The assay was performed as follows: 5 nM of CYP26B1 and 10 nM oxidoreductase was preincubated. 5 or 25 μM of the compound of Formula II and 50 nM [^3H] atRA were added followed by addition of 1 mM NADPH in total volume of 100 μl of Kpi buffer and incubated for 10 sec to 10 min. The reaction was stopped by adding 100 μl absolute ethanol. The sample was subsequently extracted and analysed by HPLC. For control, experiments were performed as above but without initiation of the reaction by NADPH.

CYP26B1 [2] = molecular target: T2, CYP26B1 (Homo sapiens, UniProt Q9NR63); experiment: [3H] atRA catabolism in CYP26B1 transfected COS-1 cells, HPLC analysis; type: cell-based; design: expressed in transfected cells; host or cells: COS-1; conditions: 1 or 10 μM for 1 h, then [3H] atRA for 2 h
T2 sequence (Q9NR63 1-512): T1 sequence (Q9NR63 1-512)
Protocol: (§1) FIG. 3 illustrates quantification of atRA levels by HPLC in human smooth muscle cells and transfected COS-1 cells: A) Human smooth muscle cells were treated with 1 or 10 μM of the new CYP26 inhibitor for 1 h followed by a 4 h [^3H] atRA incubation. B) COS-1 transfected by 1 μg/μL of CYP26B1 and incubated with 1 or 10 μM of test compound followed by a 2 h [^3H] atRA incubation. For all experiments n=3; *P<0.05, **P<0.01 and ***P<0.001.
To investigate the specificity of our candidate to inhibit CYP26B1-mediated catabolism of atRA, COS-1 cells were transfected with CYP26B1 or an empty vector (in which case no CYP26B1 can be produced). COS-1 was maintained in Dulbecco's Modified Eagle's Medium (DMEM; Life Technologies, Carsbad, Calif., USA) and transfection of COS-1 was performed in 12 well plates using 1 μg/μl of CYP26B1 and 2 μl of lipofectamin 2000 in 250 μl of Opti-MEM (Opti-MEM: Modified Eagle's Minimum Essential Media; Life Technologies, Carlsbad, Calif., USA). The mixture was incubated at room temperature for 20 minutes and added to the plate for 4 h followed by addition of growth medium for 24 h. The next day, the medium was replaced by fresh DMEM and treated by 1 or 10 μM of the compound according to Formula II for 1 h followed by exposure to 1 μCl/ml of [^3H] atRA for 2 h, and subsequent HPLC analysis.

CYP26B1 [3] = molecular target: T2, CYP26B1; experiment: [3H] atRA catabolism in human smooth muscle cells, HPLC analysis; type: cell-based; design: endogenous in cells; host or cells: human aortic smooth muscle cells (AOSMC); conditions: AOSMCs, 1 or 10 μM for 1 h, then [3H] atRA for 4 h
Protocol: as §1
AOSMCs were seeded out in density of 2×10^5 in 6 well plates incubated with two different concentrations (1 and 10 μM) of compound according to Formula II for 1 h followed by exposure to 1 μCl/ml of [^3H] atRA for 4 h. Cells were thereafter washed using BSA 1 mg/ml of PBS followed by HPLC analysis.

[4] = 1 μM in combination with atRA, 48 h
[5] = 0.001-10 μM, 24 h, normalized to Cyclophilin A, vs DMSO control

Compound: Cn1nnnc1SCCC(=O)NCc1ccc(C(=O)O)cc1 [compound of Formula II]
- effect of atRA on induction of CYP26B1 mRNA [1, 4]: significantly increased the effects of atRA on the induction
- effect of atRA on induction of RARβ mRNA [1, 4]: significantly increased the effects of atRA on the induction
- expression of CYP26B1 mRNA [1, 5]: significantly induced in a dose-dependent manner
- expression of RARβ mRNA [1, 5]: significantly induced in a dose-dependent manner
- RA degradation by purified CYP26B1 (purified CYP26B1): efficiently inhibited RA degradation
- levels of atRA (CYP26B1 [2]): significantly increased the levels of atRA
- degradation of atRA in the cells (CYP26B1 [3]): greatly reduces the degradation of atRA
